This experiment has as its system P. falciparum 3D7 growth, pLDH absorbance. The experiment in a line: P. falciparum 3D7 growth inhibition, dose response, strain 3D7 (AID 2305).

`CC(Cc1ccc(OC2CCCCC2)cc1)NCC(O)c1cccc(Cl)c1` (stereo not drawn) registered an IC50 of 140 nM.
For the compound `CC(=O)N1N=C(c2ccc(Cl)cc2)Sc2c1nc(C1CCCCC1)n2C(C)=O`, the IC50 came out at 250 nM.
For `CN1CCN(CCCN(C(=O)Nc2cc(C(F)(F)F)cc(C(F)(F)F)c2)c2ccccc2Cc2ccccc2)CC1`, the IC50 came out at 1130 nM.
In the case of `C=CC[C@H](C[C@H](O)[C@H](Cc1ccccc1)NC(=O)c1ccc(-c2cccnn2)cc1)C(=O)NC1CCCCC1` it was 1190 nM; in that of `C=C[C@H]1CN2CC[C@H]1C[C@@H]2[C@@H](O)c1ccnc2ccccc12`, 770 nM.
In turn, `COc1ccc(-c2ccc(NC(=O)c3cccc(C#N)c3)cc2)cc1CN1CCN(C)CC1` displayed a 50% inhibitory concentration (IC50) of 710 nM.
`COc1ccc(-c2ccc(CNC(=O)c3ccc(Cl)cc3)c(F)c2)cc1CN1CCCN(C)CC1` displayed an IC50 of 710 nM.
`CCCCCCN1CCC(NCc2cccc(-n3ccnc3)c2)CC1` came in with an IC50 of 250 nM.
In the case of `Clc1ccc2c(Cl)c(CNCCCNc3nc4ccccc4[nH]3)[nH]c2c1`, the IC50 came out at 220 nM.
In the case of `COc1cc2c(cc1C(F)(F)F)N(C(=O)Nc1cc(F)c(F)c(-c3cccnc3)c1)CC2` it was 630 nM; in that of `COC(=O)c1ccc(C2OC3(C(=O)c4ccccc4C3=O)C(OC)=C2Cl)cc1C(C)=O` (stereo not drawn), 550 nM.
In the case of `CN1CCCC1CCNCc1cccc(-c2cnc(N(C)C3CCCCC3)nc2)c1` (stereo not drawn) it was 850 nM; in that of `O=C(Nc1cccc(-c2ccc(-c3nc4ccc(C(F)(F)F)cc4[nH]3)s2)c1)c1cccnc1`, 360 nM; in that of `O=C(/C=C/c1ccc(Cl)c(Cl)c1)NCCCCCN1CCC(c2c[nH]c3ccccc23)CC1`, 780 nM.
In the case of `Cc1cccc2[nH]c(-c3ccc(-c4cccc(NC(=O)C(C)CN5CCN(C)CC5)c4)cc3)nc12` (stereo not drawn) it was 740 nM.
Turning to `CCOC(=O)c1[nH]c(-c2cccc(F)c2)nc1N`, the IC50 turned out to be 750 nM.
The figure for `O=C(/C=C/c1ccc(Cl)c(Cl)c1)NCCCCCN1CCC(NC(=O)Nc2ccccc2F)CC1` is 840 nM; for `O=C(c1ccc([N+](=O)[O-])o1)N1CCN(c2nc3c(Cl)cccc3s2)CC1` it is 980 nM; for `O=C(Nc1ccc(C(F)(F)F)cc1)c1ccc(S(=O)(=O)NC2CCN(CC3CCCCC3)CC2)cc1` it is 730 nM.
In turn, `COc1ccc(C=NNc2cc(C)nc3ccc(OC)cc23)c(OC)c1` returned an IC50 of 780 nM.
As for `CC1(C)[C@H]2CC[C@@H](CNc3nc(NCCc4cnc[nH]4)nc(NCc4cc(F)ccc4F)n3)[C@@H]1C2`, the IC50 was determined as 310 nM.
For `Fc1ccc2[nH]c3c(NCCN4CCCCC4)ncnc3c2c1`, the IC50 turned out to be 830 nM.
Regarding `c1cc(CNCCc2ccncc2)cc(-c2ccc(-c3nc4ccccc4[nH]3)cc2)c1`, the IC50 was found to be 150 nM.
The figure for `C[C@H](N[C@H]1CCCc2c1[nH]c1ccc(Br)cc21)c1ccccc1` is 220 nM.
Take `Nc1c2c(nc3ccc(NC(=O)CCCc4ccccc4)cc13)CCCC2`: the IC50 came out at 430 nM.
The compound `Cc1ccccc1C1CCN(C2CCC(NC(=O)C3=Cc4ccccc4OC3)CC2)CC1` (stereo not drawn) showed an IC50 of 930 nM.
The figure for `CS(=O)(=O)NCCCNCc1cccc(-c2ccc(-c3nc4ccccc4[nH]3)s2)c1` is 1080 nM; for `COc1ccc(C)cc1NC(=O)CSc1nc2cccnc2n1C1CCCCC1` it is 540 nM.
As for `FC(F)(F)c1ccc2nc(-c3ccc(-c4ccc(CN5CCN(c6ccncc6)CC5)cc4)s3)[nH]c2c1`, the IC50 came to 150 nM.
`CC(=NN=C(N)N)c1ccc2c(ccc3ccccc32)c1` returned an IC50 of 830 nM.
As to `CCCNCc1ccc(-c2ccc(CN(CCOC)C(=O)CCCOCc3ccccc3)cc2)nc1`, the IC50 is 1160 nM.
Turning to `COc1ccc(C2C(C(=O)Nc3ccccc3)=C(C)Nc3c(C(=O)Nc4ccccc4)cnn32)cc1` (stereo not drawn), the IC50 is 1310 nM.
`COc1cccc(CC(C)NCC(O)c2cccc(Cl)c2)c1` (stereo not drawn): the IC50 stood at 1270 nM.
As for `Cc1cc(N[C@@H](Cc2ccccc2)C(=O)NCCOc2ccccc2)nc(NCCc2ccc(F)cc2)n1`, the IC50 stood at 600 nM.
`O=C(C=Cc1cccs1)Nc1ccc(-c2nc3ccccc3[nH]2)cc1`: the IC50 amounted to 1140 nM.
`O=C(NC1CCN(Cc2ccccc2)CC1)c1ccc(CNC2CCN(Cc3ccccc3)CC2)cc1`: the IC50 was determined as 870 nM.
The figure for `O=C(NC1CCC(CCN2Cc3ccc(Br)cc3C2)CC1)c1cccc(-c2cccnc2)c1` (stereo not drawn) is 930 nM; for `O=C(Nc1ccc(-c2nc3cc4ccccc4cc3[nH]2)cc1)c1cccc(Br)c1` it is 360 nM.
The figure for `CCC(C)c1cccc(C(C)CC)c1OCCCON1C(N)=NC(N)=NC1(C)C` (stereo not drawn) is 20 nM; for `COC(=O)C(NC(=O)c1ccc(-c2ccc(-c3nc4ccccc4[nH]3)s2)cc1)c1ccc(O)cc1` (stereo not drawn) it is 740 nM; for `CS(=O)(=O)c1ccc(-c2cc(C(F)(F)F)nc(N[C@@H]3CCCC[C@H]3OCc3ccccc3)n2)cc1` it is 60 nM.
The figure for `COc1cc2nc(NC3CCN(Cc4ccccc4)CC3)nc(N)c2cc1OC` is 170 nM; for `CCc1cc2c(=O)c(-c3nc(C)cs3)c([C@H](N)Cc3ccc(O)cc3)oc2cc1O` it is 900 nM; for `Oc1ccc2ccccc2c1C=NNc1nc(Nc2ccccc2)nc(N2CCOCC2)n1` it is 890 nM.
Turning to `CCc1ccc(CNCC(CCNc2cc(=O)c3ccccc3[nH]2)NCc2cc(Br)cc(Br)c2)o1` (stereo not drawn), the IC50 turned out to be 640 nM.
In the case of `COc1ccc(-c2cnc3ccc(NC4CCC(O)CC4)nn23)cn1` (stereo not drawn) it was 710 nM; in that of `Cc1c(CNCCCNc2nc3ccccc3[nH]2)[nH]c2cc(Cl)cc(Cl)c12`, 230 nM; in that of `CC(C)(C)CCN1CCC(CNC(=O)c2cc(-c3cccc(C(F)(F)F)c3)cs2)C1` (stereo not drawn), 890 nM.
The figure for `Cc1cc(NC(=O)NCCN2CCC(NS(=O)(=O)c3ccccc3Cl)C2)c2ccccc2n1` (stereo not drawn) is 820 nM; for `CN1CCCN(Cc2ccc(-c3cccc(NC(=O)c4cccc(F)c4)c3)cc2)CC1` it is 980 nM; for `O=C(/C=C/c1ccc(Cl)c(Cl)c1)NC1CCC(CN2CCC(c3nc4ccc(O)cc4[nH]3)CC2)CC1` (stereo not drawn) it is 240 nM.
In the case of `CCOc1ccc(OCC(=O)Nc2nc(-c3ccc(OC)cc3)c(C)s2)cc1`, the IC50 is 220 nM.
`Cc1ccc(NC(=O)Nc2cccc(Cl)c2)cc1-c1ccc(C(=O)Nc2ccncc2)cc1` registered an IC50 of 740 nM.
For the compound `CCN(CC)CCN(Cc1ccc(-c2ccc(C#N)cc2)cc1)C(=O)Cn1c(CCc2cccc(F)c2F)nc(=O)c2ccccc21`, the IC50 stood at 10 nM.
The compound `Oc1ccc(CCNc2nc(NCCCOc3cccc(-c4ccccc4)c3)nc(N3CCNCC3)n2)cc1` gave an IC50 of 1130 nM.
`CCc1c(C)nc(-n2nc(C)cc2NC(=O)C(CC)c2ccccc2)[nH]c1=O` (stereo not drawn) gave an IC50 of 710 nM.
`CCOc1ccc2nc3cc([N+](=O)[O-])ccc3c(N)c2c1` came in with an IC50 of 140 nM.
As for `COc1cc(OC)c(NC(=O)C2c3ccccc3C(=O)N(C)C2c2cccs2)cc1Cl` (stereo not drawn), the IC50 amounted to 760 nM.
`CCOc1cc(C=NNc2nc3ccccc3[nH]2)ccc1OCc1ccc([N+](=O)[O-])cc1` showed an IC50 of 1000 nM.
The compound `Cc1ccc(-n2cc(CNCCCn3ccnc3)c(-c3cccc(C)c3)n2)cc1` gave an IC50 of 770 nM.
`COc1c(C2CCN(CCCCNC(=O)c3ccc(-c4ccc(C#N)cc4)cc3)CC2)ccc2c1C(C)(C)CCC2(C)C` displayed an IC50 of 410 nM.
The compound `S=C(NN=Cc1ccccn1)Nc1ccc2c(c1)OCCO2` displayed an IC50 of 1050 nM.
Regarding `CCOC(C(=O)OCC1CCCN(C)C1)(c1ccccc1)c1ccccc1` (stereo not drawn), the IC50 came to 870 nM.

The values are drawn from PubChem BioAssay AID2305 (GlaxoSmithKline (GSK), 2010).
